From patent US20150307520A1, “NOVEL HETEROARYL AND HETEROCYCLE COMPOUNDS, COMPOSITIONS AND METHODS THEREOF” (HUTCHISON MEDIPHARMA LIMITED, priority 2012, published 2015)

Assays:
Format in all cases: biochemical
[1] = target: p110β/p85α (Homo sapiens, UniProt P42338); test: Transcreener KINASE Assay, kinase inhibition of p110β/p85α; settings: for PI3Kβ IH % @ 1 uM: 1 uM test compound; for IC50: read-out: PI3Kβ IC50
Outline: (§1)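 Steps: compound (2% DMSO final) plus enzyme in HEPES/NaCl/EGTA/CHAPS/3 mM MgCl2/1 mM DTT buffer; start with PIP2/ATP addition (30 uM/10 uM solution); 80 min RT; add ADP detection mix, 60 min RT; read fluorescence polarization.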

[2] = target: p110γ (Homo sapiens, UniProt P48736); test: Transcreener KINASE Assay, kinase inhibition of p110γ; settings: for PI3Kγ IH % @ 1 uM: 1 uM test compound; for IC50: read-out: PI3Kγ IC50
Chain of p110γ (P48736 whole entry): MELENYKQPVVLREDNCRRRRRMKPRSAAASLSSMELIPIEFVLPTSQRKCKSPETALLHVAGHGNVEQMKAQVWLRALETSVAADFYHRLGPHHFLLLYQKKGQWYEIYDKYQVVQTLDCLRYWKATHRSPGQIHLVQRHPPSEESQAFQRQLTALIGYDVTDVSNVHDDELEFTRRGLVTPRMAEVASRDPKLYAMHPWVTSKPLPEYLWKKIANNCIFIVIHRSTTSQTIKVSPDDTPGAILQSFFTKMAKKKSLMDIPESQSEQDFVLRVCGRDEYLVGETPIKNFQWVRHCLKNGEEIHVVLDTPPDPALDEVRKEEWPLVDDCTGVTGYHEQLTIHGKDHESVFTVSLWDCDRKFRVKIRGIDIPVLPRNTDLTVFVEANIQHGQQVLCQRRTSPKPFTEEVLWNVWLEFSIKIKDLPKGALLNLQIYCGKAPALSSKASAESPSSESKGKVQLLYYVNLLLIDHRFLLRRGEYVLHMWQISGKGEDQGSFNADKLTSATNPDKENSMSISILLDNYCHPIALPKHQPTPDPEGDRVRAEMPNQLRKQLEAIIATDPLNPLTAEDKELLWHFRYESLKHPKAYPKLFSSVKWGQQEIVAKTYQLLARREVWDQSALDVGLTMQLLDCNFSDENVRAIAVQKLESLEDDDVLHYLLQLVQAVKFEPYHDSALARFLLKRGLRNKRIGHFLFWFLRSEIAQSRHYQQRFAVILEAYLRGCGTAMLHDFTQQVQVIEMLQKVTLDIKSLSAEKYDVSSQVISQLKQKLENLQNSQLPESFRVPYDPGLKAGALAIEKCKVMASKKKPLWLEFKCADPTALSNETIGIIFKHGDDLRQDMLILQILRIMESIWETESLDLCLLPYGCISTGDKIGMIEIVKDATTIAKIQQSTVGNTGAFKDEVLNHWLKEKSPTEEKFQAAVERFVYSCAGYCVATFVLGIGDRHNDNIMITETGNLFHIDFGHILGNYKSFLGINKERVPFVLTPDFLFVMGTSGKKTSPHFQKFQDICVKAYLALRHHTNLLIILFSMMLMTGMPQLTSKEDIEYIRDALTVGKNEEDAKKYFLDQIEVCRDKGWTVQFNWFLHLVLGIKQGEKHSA
Outline: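 Steps: enzyme reaction with compound, 80 min at room temperature; add ADP detection reagent, incubate 60 min at room temperature; read fluorescence polarization. Inhibition and IC50 values are derived from the ADP signal.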

[3] = target: p110δ/p85α (Homo sapiens, UniProt O00329); test: Transcreener KINASE Assay, kinase inhibition of p110δ/p85α; settings: for PI3Kδ IH % @ 1 uM: 1 uM test compound; for IC50: read-out: PI3Kδ IC50
Chain of p110δ/p85α (O00329 whole entry): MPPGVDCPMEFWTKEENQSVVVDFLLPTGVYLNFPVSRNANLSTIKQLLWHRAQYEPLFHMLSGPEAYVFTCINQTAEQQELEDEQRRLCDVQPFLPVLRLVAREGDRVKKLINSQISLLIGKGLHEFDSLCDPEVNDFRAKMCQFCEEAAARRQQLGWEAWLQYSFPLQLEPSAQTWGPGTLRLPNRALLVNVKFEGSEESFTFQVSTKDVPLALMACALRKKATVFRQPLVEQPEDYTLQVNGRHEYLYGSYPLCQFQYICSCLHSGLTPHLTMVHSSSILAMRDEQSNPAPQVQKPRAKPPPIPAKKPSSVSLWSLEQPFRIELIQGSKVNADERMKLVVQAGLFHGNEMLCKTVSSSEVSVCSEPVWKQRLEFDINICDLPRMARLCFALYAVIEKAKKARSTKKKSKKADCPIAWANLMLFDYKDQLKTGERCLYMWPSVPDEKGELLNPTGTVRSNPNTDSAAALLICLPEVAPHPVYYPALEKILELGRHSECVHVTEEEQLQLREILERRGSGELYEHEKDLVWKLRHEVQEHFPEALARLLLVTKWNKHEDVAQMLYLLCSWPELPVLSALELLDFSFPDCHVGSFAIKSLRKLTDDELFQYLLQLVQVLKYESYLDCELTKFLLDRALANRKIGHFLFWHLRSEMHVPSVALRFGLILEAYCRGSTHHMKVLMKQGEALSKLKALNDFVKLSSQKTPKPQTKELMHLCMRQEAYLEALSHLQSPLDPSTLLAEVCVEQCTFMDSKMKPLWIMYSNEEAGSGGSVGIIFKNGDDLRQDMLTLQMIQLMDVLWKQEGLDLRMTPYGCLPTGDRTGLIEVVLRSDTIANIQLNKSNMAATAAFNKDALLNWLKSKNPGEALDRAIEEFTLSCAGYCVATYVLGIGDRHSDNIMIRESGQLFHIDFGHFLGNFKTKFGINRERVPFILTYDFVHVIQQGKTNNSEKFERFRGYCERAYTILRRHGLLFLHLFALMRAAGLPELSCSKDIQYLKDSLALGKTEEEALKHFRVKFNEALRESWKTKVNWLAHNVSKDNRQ
Chain of p110δ/p85α (P27986 whole entry partner): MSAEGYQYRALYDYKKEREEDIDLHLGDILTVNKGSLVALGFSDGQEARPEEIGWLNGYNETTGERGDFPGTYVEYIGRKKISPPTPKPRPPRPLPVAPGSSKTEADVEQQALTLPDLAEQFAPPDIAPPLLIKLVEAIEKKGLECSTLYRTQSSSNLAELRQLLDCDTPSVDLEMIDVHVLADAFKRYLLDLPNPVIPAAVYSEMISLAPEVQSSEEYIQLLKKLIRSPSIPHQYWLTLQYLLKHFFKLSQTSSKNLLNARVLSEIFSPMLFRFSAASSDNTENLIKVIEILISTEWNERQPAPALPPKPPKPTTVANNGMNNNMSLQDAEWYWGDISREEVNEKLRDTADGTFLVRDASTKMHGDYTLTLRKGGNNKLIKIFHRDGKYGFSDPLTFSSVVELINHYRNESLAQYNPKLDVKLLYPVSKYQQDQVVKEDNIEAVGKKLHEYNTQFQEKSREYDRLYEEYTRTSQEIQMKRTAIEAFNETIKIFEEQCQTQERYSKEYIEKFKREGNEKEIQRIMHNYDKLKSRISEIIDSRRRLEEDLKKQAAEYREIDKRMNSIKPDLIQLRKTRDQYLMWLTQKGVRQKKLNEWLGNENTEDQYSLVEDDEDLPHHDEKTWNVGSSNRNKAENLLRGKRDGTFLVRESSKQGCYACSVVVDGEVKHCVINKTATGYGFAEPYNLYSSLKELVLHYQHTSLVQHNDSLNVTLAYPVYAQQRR
Outline: as §1

Chain of p110β/p85α (P42338 whole entry): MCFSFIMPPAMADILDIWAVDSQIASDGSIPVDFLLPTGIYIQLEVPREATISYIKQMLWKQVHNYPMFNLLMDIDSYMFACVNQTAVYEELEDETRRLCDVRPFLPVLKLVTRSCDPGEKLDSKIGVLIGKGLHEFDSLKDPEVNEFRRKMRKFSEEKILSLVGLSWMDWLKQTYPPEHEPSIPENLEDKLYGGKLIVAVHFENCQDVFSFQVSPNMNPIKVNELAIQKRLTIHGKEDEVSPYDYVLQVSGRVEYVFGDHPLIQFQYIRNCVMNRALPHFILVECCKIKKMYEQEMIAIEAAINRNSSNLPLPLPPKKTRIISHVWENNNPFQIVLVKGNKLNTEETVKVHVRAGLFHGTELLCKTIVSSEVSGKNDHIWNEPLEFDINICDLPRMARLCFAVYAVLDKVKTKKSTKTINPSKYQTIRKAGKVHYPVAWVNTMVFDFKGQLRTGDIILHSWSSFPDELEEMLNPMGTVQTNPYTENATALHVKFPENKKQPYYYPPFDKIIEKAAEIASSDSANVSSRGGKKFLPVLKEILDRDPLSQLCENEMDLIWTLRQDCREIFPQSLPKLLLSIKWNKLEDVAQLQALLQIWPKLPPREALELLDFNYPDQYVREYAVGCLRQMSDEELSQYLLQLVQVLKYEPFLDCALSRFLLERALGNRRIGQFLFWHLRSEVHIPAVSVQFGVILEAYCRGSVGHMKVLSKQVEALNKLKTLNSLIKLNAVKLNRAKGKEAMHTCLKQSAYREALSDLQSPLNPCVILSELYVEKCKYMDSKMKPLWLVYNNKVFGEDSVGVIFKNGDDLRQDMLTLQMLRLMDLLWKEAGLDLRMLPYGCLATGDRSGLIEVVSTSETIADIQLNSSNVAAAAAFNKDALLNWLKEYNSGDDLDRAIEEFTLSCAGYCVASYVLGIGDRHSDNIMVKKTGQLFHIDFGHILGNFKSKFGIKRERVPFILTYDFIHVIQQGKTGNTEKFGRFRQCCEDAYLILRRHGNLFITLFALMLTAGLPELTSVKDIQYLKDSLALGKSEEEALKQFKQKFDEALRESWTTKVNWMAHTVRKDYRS
Chain of p110β/p85α (P27986 2-724 partner): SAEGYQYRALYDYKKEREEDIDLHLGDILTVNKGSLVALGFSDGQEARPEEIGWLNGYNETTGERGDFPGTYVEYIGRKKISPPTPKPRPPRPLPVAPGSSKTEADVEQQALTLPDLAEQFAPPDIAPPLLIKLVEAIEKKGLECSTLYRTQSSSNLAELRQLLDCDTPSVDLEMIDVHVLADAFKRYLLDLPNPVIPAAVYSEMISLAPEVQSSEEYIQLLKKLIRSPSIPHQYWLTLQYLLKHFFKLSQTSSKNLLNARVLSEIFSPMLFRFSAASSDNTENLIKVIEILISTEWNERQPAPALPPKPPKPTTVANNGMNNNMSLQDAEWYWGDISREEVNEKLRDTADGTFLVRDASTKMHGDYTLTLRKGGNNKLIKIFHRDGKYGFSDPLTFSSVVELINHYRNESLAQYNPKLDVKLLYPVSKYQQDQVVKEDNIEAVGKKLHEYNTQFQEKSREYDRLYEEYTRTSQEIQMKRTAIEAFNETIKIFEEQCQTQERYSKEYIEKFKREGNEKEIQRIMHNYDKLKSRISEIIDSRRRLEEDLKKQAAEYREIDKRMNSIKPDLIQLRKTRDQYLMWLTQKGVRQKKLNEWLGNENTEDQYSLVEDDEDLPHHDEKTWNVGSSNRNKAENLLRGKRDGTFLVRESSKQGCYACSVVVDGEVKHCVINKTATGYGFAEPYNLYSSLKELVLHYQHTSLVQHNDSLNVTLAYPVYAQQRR

Row | PI3Kβ IH % @ 1 uM [1] | PI3Kγ IH % @ 1 uM [2] | IC50 [2] | PI3Kδ IH % @ 1 uM [3] | IC50 [3] | IC50 [1] | SMILES
1 | 38.1% | >100% | 93 nM | 94.7% | 147 nM |  | CC(Nc1ncnc2[nH]cc(S(C)(=O)=O)c12)c1cn2ccc(Cl)c2c(=O)n1-c1ccccc1 (stereo not shown) [Compound 269]
2 | 87.4% | 89.7% | 22 nM | >100% | 12 nM | 174 nM | CC(Nc1ncnc2[nH]cc(F)c12)c1cn2ccc(Cl)c2c(=O)n1-c1ccccc1 (stereo not shown) [Compound 270]
3 | 94.2% | 97.6% | 2 nM | >100% | 1 nM | 15 nM | CC(Nc1nc(N)ncc1C#N)c1cn2ccc(Cl)c2c(=O)n1-c1ccccc1 (stereo not shown) [Compound 271]
4 | 76.9% | >100% | 21 nM | 98.8% | 7 nM | 239 nM | CC(=O)c1c[nH]c2ncnc(NC(C)c3cn4ccc(Cl)c4c(=O)n3-c3ccccc3)c12 (stereo not shown) [Compound 272]
5 | 98.8% | 98.3% | 5 nM | >100% | 3 nM | 12 nM | CC(=O)c1cnc(N)nc1NC(C)c1cn2ccc(Cl)c2c(=O)n1-c1ccccc1 (stereo not shown) [Compound 273]
6 | 61.6% | 86.8% | 101 nM | 97.8% | 3 nM |  | CC(=O)c1c(N)ncnc1NC(C)c1cn2ccc(Cl)c2c(=O)n1-c1ccccc1 (stereo not shown) [Compound 274]
7 | 97.5% | 97.8% | 1 nM | >100% | 0.4 nM | 12 nM | CC(Nc1nc(N)nc2c1C(=O)CCN2)c1cn2ccc(Cl)c2c(=O)n1-c1ccccc1 (stereo not shown) [Compound 275]
8 | 52.9% | 95.7% | 6 nM | 99.1% | 1 nM |  | CC(=O)c1c[nH]c2ncnc(NC(C)c3cn4ccc(Cl)c4c(=O)n3-c3cccc(F)c3)c12 (stereo not shown) [Compound 276]
9 | 81.4% | 97.0% | 11 nM | 99.5% | 1 nM | 247 nM | CC(Nc1ncnc2[nH]cc(C#N)c12)c1cn2ccc(Cl)c2c(=O)n1-c1cccc(F)c1 (stereo not shown) [Compound 277]
10 | 43.0% | 92.0% | 42 nM | >100% | 5 nM |  | COCC#Cc1c[nH]c2ncnc(N3CC[C@H]3c3nn4ccc(Cl)c4c(=O)n3-c3ccccc3)c12 [Compound 279]
11 | −2.0% | 87.2% | 256 nM | 47.0% |  |  | Cn1cc(-c2cnc(N)nc2N2CC[C@H]2c2nn3ccc(Cl)c3c(=O)n2-c2ccccc2)cn1 [Compound 280]
12 | 11.1% | 62.2% |  | 15.7% |  |  | CN(C)C(=O)c1cnc(N)nc1N1CC[C@H]1c1nn2ccc(Cl)c2c(=O)n1-c1ccccc1 [Compound 281]
13 | 19.9% | 93.5% |  | 94.9% |  |  | Nc1ncc([N+](=O)[O-])c(N2CC[C@H]2c2nn3ccc(Cl)c3c(=O)n2-c2ccccc2)n1 [Compound 282]
14 | 78.0% | >100% | 1 nM | >100% | 2 nM | 137 nM | Cc1nc(N)nc(N2CC[C@H]2c2nn3ccc(Cl)c3c(=O)n2-c2ccccc2)c1C#N [Compound 283]
15 | 9.7% | 51.2% |  | 51.2% |  |  | COc1cnc(N)nc1N1CC[C@H]1c1nn2ccc(Cl)c2c(=O)n1-c1ccccc1 [Compound 284]
16 | 79.0% | >100% | 37 nM | >100% | 4 nM | 257 nM | CC(Nc1ncnc2[nH]cc(F)c12)c1cc2ncc(Cl)n2c(=O)n1-c1ccccc1 (stereo not shown) [Compound 285]
17 | 25.2% | 56.2% |  | 88.8% | 29 nM |  | CC(Nc1ncnc2[nH]cc(S(C)(=O)=O)c12)c1cc2ncc(Cl)n2c(=O)n1-c1ccccc1 (stereo not shown) [Compound 286]
18 | 73.9% | 96.9% | 68 nM | >100% | 5 nM | 463 nM | CC(=O)c1c[nH]c2ncnc(NC(C)c3cc4ncc(Cl)n4c(=O)n3-c3ccccc3)c12 (stereo not shown) [Compound 287]
19 | 94.5% | 95.8% | 21 nM | 99.7% | 4 nM | 93 nM | CC(=O)c1cnc(N)nc1NC(C)c1cc2ncc(Cl)n2c(=O)n1-c1ccccc1 (stereo not shown) [Compound 288]
20 |  |  | 4 nM |  | 1 nM | 39 nM | CC(Nc1nc(N)nc2c1C(=O)CCN2)c1cc2ncc(Cl)n2c(=O)n1-c1ccccc1 (stereo not shown) [Compound 290]
21 | 12.6% | 91.1% | 143 nM | 80.4% |  |  | C=Cc1ccn2nc([C@@H]3CCN3c3ncnc4[nH]cc(C#N)c34)n(-c3ccccc3)c(=O)c12 [Compound 291]
22 | 45.1% | 94.7% | 112 nM | >100% | 7 nM |  | C=Cc1ccn2nc([C@@H]3CCCN3c3ncnc4[nH]cc(C#N)c34)n(-c3ccccc3)c(=O)c12 [Compound 292]
23 | 54.2% | 94.7% | 103 nM | 98.9% | 14 nM |  | O=c1c2c(Cl)ccn2nc([C@@H]2C[S+]([O-])CN2c2ncnc3[nH]cnc23)n1-c1ccccc1 (stereo partly drawn) [Compound 293, 5-chloro-2-((4R)-1-oxido-3-(9H-purin-6-yl)thiazolidin-4-yl)-3-phenylpyrrolo[2,1-f][1,2,4]triazin-4(3H)-one]
24 | 70.6% | >100% | 26 nM | 99.3% | 3 nM | 475 nM | O=c1c2c(Cl)ccn2nc([C@@H]2CSCN2c2ncnc3[nH]cnc23)n1-c1ccccc1 [Compound 294, (R)-2-(3-(9H-purin-6-yl)thiazolidin-4-yl)-5-chloro-3-phenylpyrrolo[2,1-f][1,2,4]triazin-4(3H)-one]
25 | 6.8% | 85.5% | 36 nM | 77.0% | 381 nM |  | CC(=O)c1c[nH]c2ncnc(N3CC[C@H]3c3nn4ccc(Cl)c4c(=O)n3-c3ccc(F)cc3)c12 [Compound 296, (S)-2-(1-(5-acetyl-7H-pyrrolo[2,3-d]pyrimidin-4-yl)azetidin-2-yl)-5-chloro-3-(4-fluorophenyl)pyrrolo[2,1-f][1,2,4]triazin-4(3H)-one]
26 | 61.5% | 92.7% | 15 nM | 96.0% | 6 nM |  | CC(=O)c1n[nH]c2ncnc(N3CCC[C@H]3c3nn4ccc(Cl)c4c(=O)n3-c3ccccc3)c12 [Compound 297]
27 | 17.8% | 70.2% | 158 nM | 61.9% |  |  | CC(=O)c1n[nH]c2ncnc(N3CC[C@H]3c3nn4ccc(Cl)c4c(=O)n3-c3ccccc3)c12 [Compound 298]
28 | 51.5% | 82.7% | 148 nM | 99.1% | 29 nM |  | CC(=O)c1c(N)ncnc1N1CC[C@H]1c1nn2ccc(Cl)c2c(=O)n1-c1ccccc1 [Compound 300]
